In one test the test system is TCG codon, mammalian cells. Put plainly: TCG codon recoding efficiency of all amino acids (Table 1). In kind it is cell-based. The following applies: TCG codon recoding of the unnatural amino acid with the aaRS and mutation of the same table line; class symbols. The source says: Specific details are shown in Table 1 below, where “wt” represents the wild-type aminoacyl-tRNA synthetase, “mutation sites” indicate the positions and types of mutations related to specific unnatural amino acid binding on the wild-type aminoacyl-tRNA synthetase, and “unnatural amino acid” represents the unnatural amino acid corresponding to the mutated aminoacyl-tRNA synthetase. In the unnatural amino acid encoding efficiency, “+” indicates a recoding efficiency greater than 40%, “++” greater than 60%, and “+++” greater than 80%.
Accordingly, this application compiles all amino acids reported in the literature that are recognized by orthogonal aminoacyl-tRNA synthetases in mammalian systems and evaluates their recoding efficiency using the TCG codon as an example.
As to `COc1ccc2c(C[C@H](N)C(=O)O)c[nH]c2c1OC` [compound 296], the “Recoding rate (%)” value is “+++ (“+++” greater than 80%)”.
On the same count and under the same terms, as for `N[C@@H](Cc1ccc(C(=O)c2ccc(Cl)cc2)cc1)C(=O)O` [compound 343], the entry is “++ (“++” greater than 60%)”; as for `N[C@@H](CCC(=O)OCc1ccccc1)C(=O)O` [compound 265], “++ (“++” greater than 60%)”.
The same measure, in the same setting: as for `CC(SCC(N)C(=O)O)c1cc2c(cc1[N+](=O)[O-])OCO2` (mixture of isomers) [compound 269], the entry is “+ (“+” indicates a recoding efficiency greater than 40%)”; as for `CC(OC(=O)NCSCCC(N)C(=O)O)c1cc2c(cc1[N+](=O)[O-])OCO2` (mixture of isomers) [compound 271], “+ (“+” indicates a recoding efficiency greater than 40%)”; as for `[N-]=[N+]=NCCCCSC[C@H](N)C(=O)O` [compound 388], “++ (“++” greater than 60%)”.
On the same count and under the same terms, for `N[C@@H](Cc1ccc(C=CCCc2ccc3c(c2)CCC3)cc1)C(=O)O` [compound 322] the value was “++ (“++” greater than 60%)”; for `C#Cc1cc(C[C@H](N)C(=O)O)ccc1OS(=O)(=O)F` [compound 324], “++ (“++” greater than 60%)”.
`[N-]=[N+]=NCCCCCSC[C@H](N)C(=O)O` [compound 389]: the “Recoding rate (%)” value is listed as “++ (“++” greater than 60%)”.
Still for that read-out and setting: for `N[C@@H](Cc1ccc(OCC2CCCC2)cc1)C(=O)O` [compound 238] the value was “++ (“++” greater than 60%)”; for `N[C@@H](Cc1ccc(C(=O)CF)cc1)C(=O)O` [compound 358], “+++ (“+++” greater than 80%)”.
Turning to `COc1cccc2c(C[C@H](N)C(=O)O)c[nH]c12` [compound 303], the “Recoding rate (%)” value is recorded as “+++ (“+++” greater than 80%)”.
`N[C@@H](CSCc1ccccc1[N+](=O)[O-])C(=O)O` [compound 268]: the “Recoding rate (%)” value is “+ (“+” indicates a recoding efficiency greater than 40%)”.
Regarding `C#CCSC[C@H](N)C(=O)O` [compound 273], the “Recoding rate (%)” value was “+ (“+” indicates a recoding efficiency greater than 40%)”.
Consider `N[C@@H](Cc1c[nH]c2c3c(ccc12)OCC3)C(=O)O` [compound 285], for which the “Recoding rate (%)” value is on record as “++ (“++” greater than 60%)”.
Take `N[C@@H](Cc1ccc(C#CCCCBr)cc1)C(=O)O` [compound 316]: the “Recoding rate (%)” value is “++ (“++” greater than 60%)”.
Turning to `N[C@@H](CCCNC(=O)NCc1ccccc1[N+](=O)[O-])C(=O)O` [compound 375], the “Recoding rate (%)” value is recorded as “++ (“++” greater than 60%)”.
Turning to `N[C@@H](Cc1ccc(C#CCc2ccccc2)cc1)C(=O)O` [compound 318], the “Recoding rate (%)” value is listed as “+++ (“+++” greater than 80%)”.
On to `N[C@@H](Cc1ccc(OS(=O)(=O)F)cc1)C(=O)O` [compound 287], for which the “Recoding rate (%)” value is listed as “+++ (“+++” greater than 80%)”.
The same measure, in the same setting: as for `N[C@@H](Cc1ccc(C(=O)c2ccc(F)cc2)cc1)C(=O)O` [compound 342], the entry is “++ (“++” greater than 60%)”; as for `C#CCCCSC[C@H](N)C(=O)O` [compound 385], “++ (“++” greater than 60%)”.
Consider `N[C@@H](Cc1cccc(N2CCCC2)c1)C(=O)O` [compound 289], for which the “Recoding rate (%)” value is listed as “++ (“++” greater than 60%)”.
As for `CC=CCOC[C@H](N)C(=O)O` [compound 408], the “Recoding rate (%)” value is “+++ (“+++” greater than 80%)”.
For the molecule `CC(=O)CCCSC[C@H](N)C(=O)O` [compound 377], the “Recoding rate (%)” value was “++ (“++” greater than 60%)”.
On the same count and under the same terms, for `[N-]=[N+]=Nc1ccc2[nH]cc(C[C@H](N)C(=O)O)c2c1` [compound 416] the value was “+ (“+” indicates a recoding efficiency greater than 40%)”; for `N[C@@H](Cc1ccc(NC(=O)CF)cc1)C(=O)O` [compound 355], “+++ (“+++” greater than 80%)”.
`C#CCCC(=O)Nc1ccc(C[C@H](N)C(=O)O)cc1` [compound 351]: the “Recoding rate (%)” value is on record as “+++ (“+++” greater than 80%)”.
On the same count and under the same terms, for `CCOc1cc(COC[C@H](N)C(=O)O)c([N+](=O)[O-])cc1OCC` [compound 402] the value was “+++ (“+++” greater than 80%)”; for `CC(SCCOC(=O)NCC(N)C(=O)O)c1cc2c(cc1[N+](=O)[O-])OCO2` (mixture of isomers) [compound 276], “+ (“+” indicates a recoding efficiency greater than 40%)”.
For `C=CC[S+]([O-])C[C@@H](N)C(=O)O` (stereo partly drawn) [compound 405], the “Recoding rate (%)” value was “+++ (“+++” greater than 80%)”.
Consider `N[C@@H](Cc1ccc(C(=O)c2cccc(Cl)c2)cc1)C(=O)O` [compound 341], for which the “Recoding rate (%)” value is listed as “++ (“++” greater than 60%)”.
Take `CC(OC(=O)CC(N)C(=O)O)c1ccccc1[N+](=O)[O-]` (mixture of isomers) [compound 262]: the “Recoding rate (%)” value is given as “++ (“++” greater than 60%)”.
Still for that read-out and setting: as for `N[C@@H](Cc1ccc2c(c1)OCO2)C(=O)O` [compound 248], the entry is “+ (“+” indicates a recoding efficiency greater than 40%)”; as for `N[C@@H](Cc1ccc(CC(=O)O)cc1)C(=O)O` [compound 357], “++ (“++” greater than 60%)”.
Same read-out and setting: for `C=CCCCOC[C@H](N)C(=O)O` [compound 409] the value was “+++ (“+++” greater than 80%)”; for `N[C@@H](CCSCNC(=O)Cc1ccccc1)C(=O)O` [compound 274], “++ (“++” greater than 60%)”.
The same measure, in the same setting: for `N[C@@H](Cc1ccc([N+](=O)[O-])cc1)C(=O)O` [compound 367] the value was “+++ (“+++” greater than 80%)”; for `N#Cc1ccc(C[C@H](N)C(=O)O)cc1` [compound 368], “+++ (“+++” greater than 80%)”; for `N[C@@H](CCC(=O)OCc1cc2c(cc1[N+](=O)[O-])OCO2)C(=O)O` [compound 264], “++ (“++” greater than 60%)”.
For `N[C@@H](Cc1ccc(O)c(I)c1)C(=O)O` [compound 334], the “Recoding rate (%)” value is “+++ (“+++” greater than 80%)”.
Same read-out and setting: for `Cc1ccc2c(C[C@H](N)C(=O)O)c[nH]c2c1C` [compound 295] the value was “+++ (“+++” greater than 80%)”; for `C#CCOc1ccc2[nH]cc(C[C@H](N)C(=O)O)c2c1` [compound 415], “+ (“+” indicates a recoding efficiency greater than 40%)”.

Still in this test, the particulars now being: TCG codon recoding of the unnatural amino acid with the aaRS and mutation of the same table line; numeric values.
For the molecule `N[C@@H](Cc1ccc2ccccc2c1)C(=O)O` [compound 307], the “Recoding rate (%)” value is reported as 66%.
Regarding `N#Cc1cccc(C[C@H](N)C(=O)O)c1` [compound 235], the “Recoding rate (%)” value was determined as 74%.
Turning to `Cn1cncc1C[C@H](N)C(=O)O` [compound 253], the “Recoding rate (%)” value is recorded as 85%.
For the molecule `CCCCCCC[C@H](N)C(=O)O` [compound 397], the “Recoding rate (%)” value is on record as 92%.
Take `Cc1ccc2[nH]cc(C[C@H](N)C(=O)O)c2c1` [compound 412]: the “Recoding rate (%)” value was determined as 37%.
Same read-out and setting: as for `N[C@@H](Cc1ccc(B(O)O)cc1)C(=O)O` [compound 362], the figure is 66%; as for `N[C@@H](Cc1csc2ccccc12)C(=O)O` [compound 299], 84%.
On the same count and under the same terms, for `[N-]=[N+]=Nc1ccc(C[C@H](N)C(=O)O)cc1` [compound 298] the value was 88%; for `COc1ccc2c(C[C@H](N)C(=O)O)c[nH]c2c1` [compound 294], 63%.
Same read-out and setting: for `CCCSC(=O)CCCC(=O)NCCCC[C@H](N)C(=O)O` [compound 284] the value was 57%; for `N[C@@H](Cc1cccc(C(F)(F)F)c1)C(=O)O` [compound 234], 81%.
As to `[N-]=[N+]=Nc1ccc(C[C@H](N)C(=O)O)cc1` [compound 360], the “Recoding rate (%)” value worked out at 79%.
Same read-out and setting: for `N[C@@H](Cc1ccc(OS(=O)(=O)F)cc1)C(=O)O` [compound 372] the value was 70%.
On the same count and under the same terms, for `COc1ccc(C[C@H](N)C(=O)O)cc1` [compound 400] the value was 92%; for `COc1ccc2c(C[C@H](N)C(=O)O)c[nH]c2c1` [compound 327], 80%; for `CC(C)(C)Oc1ccc(C[C@H](N)C(=O)O)cc1` [compound 244], 72%.
Regarding `N[C@@H](CC(=O)OCc1ccccc1[N+](=O)[O-])C(=O)O` [compound 261], the “Recoding rate (%)” value is 23%.
The same measure, in the same setting: as for `N[C@@H](Cc1ccsc1)C(=O)O` [compound 256], the figure is 64%; as for `N#Cc1ccc2c(C[C@H](N)C(=O)O)c[nH]c2c1` [compound 293], 84%.
Still for that read-out and setting: for `Nc1cc(C[C@H](N)C(=O)O)ccc1O` [compound 361] the value was 50%; for `Cc1cccc2c(C[C@H](N)C(=O)O)c[nH]c12` [compound 300], 69%.
As to `C=CCOc1ccc(C[C@H](N)C(=O)O)cc1` [compound 241], the “Recoding rate (%)” value is 83%.
Regarding `N[C@@H](Cc1c[nH]c2cc(Br)ccc12)C(=O)O` [compound 292], the “Recoding rate (%)” value came out at 73%.
On to `N[C@@H](CC(=O)OCc1ccccc1)C(=O)O` [compound 266], for which the “Recoding rate (%)” value is 75%.
For `N[C@@H](Cc1ccc(I)cc1)C(=O)O` [compound 331], the “Recoding rate (%)” value was determined as 43%.
In the case of `N[C@@H](Cc1c[nH]c2c(Cl)cccc12)C(=O)O` [compound 301], the “Recoding rate (%)” value came to 71%.
With `Cn1cc(C[C@H](N)C(=O)O)c2ccccc21` [compound 309], the “Recoding rate (%)” value is 63%.
On the same count and under the same terms, for `C#CCCCCSC[C@H](N)C(=O)O` [compound 386] the value was 77%; for `COc1ccc([N+](=O)[O-])c2c1CCN2C(=O)CC[C@H](N)C(=O)O` [compound 374], 43%; for `N[C@@H](Cc1ccc(Br)cc1)C(=O)O` [compound 328], 51%.
